Consider 24 molecules from ChEMBL document CHEMBL2177100, “Structural optimization and structure-activity relationships of N2-(4-(4-Methylpiperazin-1-yl)phenyl)-N8-phenyl-9H-purine-2,8-diamine derivatives, a new class of reversible kinase inhibitors targeting both EGFR-activating and resistance mutations” (J Med Chem, 2012).

Calls of active or inactive are those of the source. The rule behind the calls is not given here. Some results are limits rather than exact numbers.

In series [1] the test system is HepG2. The series is described as follows: Cytotoxicity against human HepG2 cells incubated for 72 hrs by MTT assay. Format: functional, cell-based. Particulars: HepG2, 72 h. In general terms: Tetrazolium assays rely on reduction of a dye to a coloured formazan, in cell work by metabolically active cells.
The test system of series [2] is NCI-H1975. Put plainly: Cytotoxicity against human NCI-H1975 cells incubated for 72 hrs by MTT assay. Format: functional, cell-based. Particulars: NCI-H1975, 72 h.
Series [3] can be described thus: Cytotoxicity against human HCC827 cells incubated for 72 hrs by MTT assay. Format: functional, cell-based. Particulars: HCC827, 72 h.
The target of series [4] is Epidermal growth factor receptor (Homo sapiens, UniProt P00533, L858R/T790M). Put plainly: Inhibition of EGFR L858R/T790M mutant. The format is protein assay.
For series [5], the target named is Epidermal growth factor receptor (Homo sapiens, UniProt P00533, L858R). Put plainly: Inhibition of EGFR L858R mutant. The format is protein assay.
Series [6] has as its system Mus musculus. Put plainly: Toxicity in human NCI-H1975 cells xenografted BALB/c mouse assessed as body weight loss at 20 mg/kg, po qd. Format: organism-based. Also noted: dose 20 mg/kg, route oral. Conditions: in vivo. A general note: In xenograft studies the graft and the host belong to different species.
Series [7] deals with NCI-H1975. The series is described as follows: Antitumor activity against human NCI-H1975 cells xenografted in BALB/c mouse assessed as inhibition of tumor growth at 20 mg/kg, po qd. Format: functional. Conditions: read-out: TGI.
In series [8] the test system is HCC827. The series is described as follows: Antitumor activity against human HCC827 cells xenografted in BALB/c mouse assessed as reduction tumor volume at 100 mg/kg, po qd. Format: functional, organism-based. Also noted: dose 100 mg/kg.
The subject of series [9] is PC-9. The series is described as follows: Cytotoxicity against human PC9 cells incubated for 72 hrs by MTT assay. Format: functional, cell-based. Conditions: PC-9, 72 h.

Chain of Epidermal growth factor receptor (Homo sapiens, UniProt P00533, L858R) (P00533 25-1210 L858R limits assumed): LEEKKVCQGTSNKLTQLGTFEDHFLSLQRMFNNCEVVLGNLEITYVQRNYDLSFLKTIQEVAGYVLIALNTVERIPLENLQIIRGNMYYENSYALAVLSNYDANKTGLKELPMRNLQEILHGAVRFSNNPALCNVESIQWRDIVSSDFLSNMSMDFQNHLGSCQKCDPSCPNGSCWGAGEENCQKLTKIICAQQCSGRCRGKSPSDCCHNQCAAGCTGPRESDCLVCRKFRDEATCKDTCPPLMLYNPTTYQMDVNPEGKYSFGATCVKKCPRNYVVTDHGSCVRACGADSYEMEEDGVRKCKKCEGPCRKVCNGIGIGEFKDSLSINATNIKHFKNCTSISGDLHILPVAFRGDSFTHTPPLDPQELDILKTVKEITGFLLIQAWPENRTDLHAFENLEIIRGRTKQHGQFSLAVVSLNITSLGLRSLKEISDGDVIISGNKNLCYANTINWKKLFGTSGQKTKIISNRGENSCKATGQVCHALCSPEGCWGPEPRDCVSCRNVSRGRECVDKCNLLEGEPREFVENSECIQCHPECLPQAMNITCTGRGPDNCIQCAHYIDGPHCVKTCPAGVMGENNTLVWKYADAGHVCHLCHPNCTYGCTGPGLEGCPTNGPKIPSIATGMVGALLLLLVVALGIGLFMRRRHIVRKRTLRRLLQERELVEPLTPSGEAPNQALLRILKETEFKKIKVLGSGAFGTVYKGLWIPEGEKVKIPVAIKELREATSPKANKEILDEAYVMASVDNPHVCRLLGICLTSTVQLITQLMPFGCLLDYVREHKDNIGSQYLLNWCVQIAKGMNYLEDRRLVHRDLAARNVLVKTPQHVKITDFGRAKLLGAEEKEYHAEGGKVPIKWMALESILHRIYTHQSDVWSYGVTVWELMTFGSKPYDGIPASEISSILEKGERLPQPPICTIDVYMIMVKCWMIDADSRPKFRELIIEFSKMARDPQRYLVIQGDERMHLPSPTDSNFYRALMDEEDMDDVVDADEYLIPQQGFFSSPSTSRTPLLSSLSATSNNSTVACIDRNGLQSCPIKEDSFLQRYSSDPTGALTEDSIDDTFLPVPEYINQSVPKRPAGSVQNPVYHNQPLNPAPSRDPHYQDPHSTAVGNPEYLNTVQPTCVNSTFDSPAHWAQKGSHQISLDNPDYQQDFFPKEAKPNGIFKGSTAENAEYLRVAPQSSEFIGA
Chain of Epidermal growth factor receptor (Homo sapiens, UniProt P00533, L858R/T790M) (P00533 25-1210 T790M/L858R limits assumed): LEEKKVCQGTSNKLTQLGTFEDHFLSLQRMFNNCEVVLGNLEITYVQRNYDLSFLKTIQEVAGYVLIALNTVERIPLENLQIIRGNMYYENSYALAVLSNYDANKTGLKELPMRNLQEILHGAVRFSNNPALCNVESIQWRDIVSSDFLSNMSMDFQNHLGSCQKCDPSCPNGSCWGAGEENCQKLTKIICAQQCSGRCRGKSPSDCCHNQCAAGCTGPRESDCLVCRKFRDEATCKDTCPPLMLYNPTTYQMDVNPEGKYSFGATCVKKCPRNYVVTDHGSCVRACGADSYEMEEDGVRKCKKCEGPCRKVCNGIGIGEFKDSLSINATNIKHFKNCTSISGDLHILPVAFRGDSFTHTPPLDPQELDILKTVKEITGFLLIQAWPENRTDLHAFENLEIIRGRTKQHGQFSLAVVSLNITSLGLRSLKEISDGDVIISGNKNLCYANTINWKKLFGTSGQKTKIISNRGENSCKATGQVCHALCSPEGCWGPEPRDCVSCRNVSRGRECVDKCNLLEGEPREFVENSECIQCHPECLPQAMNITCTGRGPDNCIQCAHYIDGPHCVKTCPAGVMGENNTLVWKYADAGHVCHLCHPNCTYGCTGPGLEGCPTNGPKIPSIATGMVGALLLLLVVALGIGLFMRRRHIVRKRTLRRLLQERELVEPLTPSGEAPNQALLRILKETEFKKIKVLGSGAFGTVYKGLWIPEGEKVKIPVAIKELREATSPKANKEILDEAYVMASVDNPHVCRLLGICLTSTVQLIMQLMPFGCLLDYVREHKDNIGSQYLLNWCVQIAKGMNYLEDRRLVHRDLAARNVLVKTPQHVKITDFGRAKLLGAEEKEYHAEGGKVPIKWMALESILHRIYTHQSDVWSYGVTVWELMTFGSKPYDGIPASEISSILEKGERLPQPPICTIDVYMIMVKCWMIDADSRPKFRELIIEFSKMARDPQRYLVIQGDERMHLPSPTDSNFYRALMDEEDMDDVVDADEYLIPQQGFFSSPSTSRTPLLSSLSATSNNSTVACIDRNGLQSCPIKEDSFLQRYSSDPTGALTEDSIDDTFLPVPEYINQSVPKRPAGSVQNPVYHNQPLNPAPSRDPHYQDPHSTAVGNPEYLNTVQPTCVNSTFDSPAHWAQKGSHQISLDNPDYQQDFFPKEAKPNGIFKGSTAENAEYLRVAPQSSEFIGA

On to `Cc1cccc(Nc2nc3cnc(Nc4ccc(N5CCN(C)CC5)cc4)nc3n2C2CCCC2)c1`, for which the IC50 (in general, the midpoint of a concentration-inhibition curve) in [1] is 4700 nM; in series [2], 560 nM; in series [3] it was below 0.01 nM.
Take `CN1CCN(c2ccc(Nc3ncc4nc(Nc5cccc(Cl)c5)n(C5CCCC5)c4n3)cc2)CC1`: the concentration for half-maximal inhibition (IC50) in series [1] was 4800 nM; in series [2] it was 390 nM; in [3] it was below 0.01 nM.
As to `CN1CCN(c2ccc(Nc3ncc4nc(Nc5ccccc5)n(C5CCCCC5)c4n3)cc2)CC1`, the half-inhibitory concentration (IC50) is above 5000 nM in [1], 390 nM in [2] and below 0.01 nM in series [3].
Regarding `OCCNc1ccc(Nc2ncc3nc(Nc4ccccc4)n(C4CCCC4)c3n2)cc1`, the IC50 in [1] was above 5000 nM; in series [2], 2810 nM; in [3] it was 2.8 nM.
As to `CN1CCN(c2ccc(Nc3ncc4nc(Nc5ccccc5)[nH]c4n3)cc2)CC1`, the half-inhibitory concentration (IC50) in [1] was above 5000 nM; in series [2], 18100 nM; in [3], 233 nM; in series [4], 978 nM; in [5] it was 98 nM.
On to `CN1CCN(c2ccc(Nc3ncc4nc(Nc5cccc([N+](=O)[O-])c5)n(C5CCCC5)c4n3)cc2)CC1`, for which the IC50 in series [1] was above 5000 nM; in series [2], 980 nM; in series [3], below 0.01 nM.
On to `CN1CCN(c2ccc(Nc3ncc4nc(Nc5cc(Cl)ccc5Cl)n(C5CCCC5)c4n3)cc2)CC1`, for which the IC50 in [1] was above 5000 nM; in [2], 2540 nM; in [3], 0.01 nM.
With `C#Cc1cccc(Nc2nc3cnc(Nc4ccc(N5CCN(C)CC5)cc4)nc3n2C2CCCC2)c1`, the IC50 was 4900 nM in series [1], 650 nM in series [2] and below 0.01 nM in series [3].
In the case of `CN1CCN(c2ccc(Nc3ncc4nc(Nc5cccc(NC(=O)c6ccccc6)c5)n(C5CCCC5)c4n3)cc2)CC1`, the figures for the IC50 in [1], in series [2] and in series [3] were 2600 nM, 2120 nM and 15 nM, respectively.
Taken in the same sequence, the figures for `CN1CCN(c2ccc(Nc3ncc4nc(Nc5cccc(O)c5)n(C5CCCC5)c4n3)cc2)CC1` were 4200 nM, 1020 nM and 0.72 nM.
`CC1CCN(c2ccc(Nc3ncc4nc(Nc5ccccc5)n(C5CCCC5)c4n3)cc2)CC1`: the concentration for half-maximal inhibition (IC50) is above 5000 nM in series [1], 9800 nM in series [2] and 32 nM in series [3].
With `CN1CCN(c2ccc(Nc3ncc4nc(Nc5ccccc5)n(C)c4n3)cc2)CC1`, the IC50 in [1] is above 5000 nM; in [2], 6060 nM; in [3] it was 24 nM.
Consider `CC(=O)Nc1ccc(Nc2ncc3nc(Nc4ccccc4)n(C4CCCC4)c3n2)cc1`, for which the IC50 in series [1] was above 5000 nM; in series [2], 1210 nM; in series [3] it was 0.47 nM.
Taken in the same sequence, the figures for `Cc1cc(C)cc(-n2c(Nc3ccccc3)nc3cnc(Nc4ccc(N5CCN(C)CC5)cc4)nc32)c1` were above 5000 nM, 1910 nM and 1 nM.
In the case of `CN(C)C/C=C/C(=O)Nc1cc2c(Nc3ccc(F)c(Cl)c3)ncnc2cc1O[C@H]1CCOC1` [AFATINIB], the Activity in series [6] amounted to 6.6%. Further, in [7], the inhibition in vivo at 20 mg/kg amounted to 74%.
As for `CN1CCN(c2ccc(Nc3ncc4nc(Nc5ccc(Br)cc5F)n(C5CCCC5)c4n3)cc2)CC1`, the 50% inhibitory concentration (IC50) in [1] was above 5000 nM; in series [2], 1120 nM; in series [3], 2.3 nM.
For `c1ccc(Nc2ncc3nc(Nc4ccccc4)n(C4CCCC4)c3n2)cc1`, the concentration for half-maximal inhibition (IC50) in series [1] was above 5000 nM; in series [2], above 10000 nM; in [3] it was 2.7 nM.
Taken in the same sequence, the figures for `CC(C)n1c(Nc2ccccc2)nc2cnc(Nc3ccc(N4CCN(C)CC4)cc3)nc21` were above 5000 nM, 960 nM and 0.1 nM.
Turning to `CN1CCN(c2ccc(Nc3ncc4nc(Nc5ccccc5)n(C5CC5)c4n3)cc2)CC1`, the IC50 in series [1] is above 5000 nM; in series [2], 2860 nM; in [3], 18 nM.
Take `c1ccc(Nc2nc3cnc(Nc4ccc(N5CCOCC5)cc4)nc3n2C2CCCC2)cc1`: the values for the IC50 in series [1], in series [2] and in series [3] were above 5000 nM, 9200 nM and 0.66 nM, respectively.
Consider `COc1cc2ncnc(Nc3ccc(F)c(Cl)c3)c2cc1OCCCN1CCOCC1` [GEFITINIB], for which the TGI result in series [8] is “Active”. For the same molecule, in series [9], inhibition was half-maximal at 14 nM (IC50).
Regarding `CN1CCN(c2ccc(Nc3ncc4nc(Nc5ccccc5)n(-c5ccccc5)c4n3)cc2)CC1`, the half-inhibitory concentration (IC50) in [1] was above 5000 nM; in series [2] it was 1830 nM; in series [3], 1.7 nM.
Taken in the same sequence, the figures for `CN1CCN(c2ccc(Nc3ncc4nc(Nc5cccc(C(=O)Nc6ccc(Cl)cc6)c5)n(C5CCCC5)c4n3)cc2)CC1` were above 5000 nM, 4010 nM and 2900 nM.
Taken in the same sequence, the figures for `CN1CCN(c2ccc(Nc3ncc4nc(Nc5ccc(Br)cc5)n(C5CCCC5)c4n3)cc2)CC1` were above 5000 nM, 2090 nM and 2.2 nM.
